Columns and labels:
[1] = tested on: 4E-BP mRNA; test: qRT-PCR of 4E-BP mRNA in Drosophila S2 cells; type: cell-based; conditions: amino acid deprived, 10 μM, 6 h, vs DMSO control
Excerpt: It is known that under normal nutrient conditions the cap-dependent translational inhibitor 4E-BP is not expressed. However stress such as nutrient deprivation is known to trigger the transcriptional induction of 4E-BP. It has recently been shown that GCN2 and its downstream transcription factor, ATF4, mediate 4E-BP induction under amino acid deprivation in Drosophila, S2 cells. To further investigate the downstream effects of 1 and 2 on the amino acid deprivation GCN2 − ATF4 − 4E-BP pathway, the levels of 4E-BP mRNA transcript were monitored. We performed qRT-PCR on Drosophila S2 cells.
Drosophila S2 cell lines were cultured at 25 °C in Schneider's medium (Life Technologies, 21,720,024) and supplemented with 1% penicillin-streptomycin (Life Technologies, 15,140,122). For amino acid deprivation experiments, Schneider's medium lacking amino acids (USBiological Life Sciences, S0100-03) was used. Cells were treated for 6 h with 10 μM inhibitor concatenation or DMSO.
Total RNA was extracted with TRIzol Reagent (Invitrogen, USA). For cDNA synthesis, 200 ng of RNA was transcribed using SuperScript First-Strand Synthesis Kit (Invitrogen, USA). PCR amplification was performed for 25 cycles using taq polymerase (Roche) according to manufacturer's protocol. […] Results were expressed as the relative expression of mRNA levels detected in control samples and were calculated using the ΔΔCt method.

[2] = target: T1, human GCN2 (Homo sapiens, UniProt Q9P2K8); test: radiometric HotSpot kinase assay; type: biochemical; conditions: ATP at the ATP Km of GCN2; means of two independent experiments
T1 construct: purchased Reaction Biology Corporation (Malvern, PA)
T1 sequence (Q9P2K8 whole entry): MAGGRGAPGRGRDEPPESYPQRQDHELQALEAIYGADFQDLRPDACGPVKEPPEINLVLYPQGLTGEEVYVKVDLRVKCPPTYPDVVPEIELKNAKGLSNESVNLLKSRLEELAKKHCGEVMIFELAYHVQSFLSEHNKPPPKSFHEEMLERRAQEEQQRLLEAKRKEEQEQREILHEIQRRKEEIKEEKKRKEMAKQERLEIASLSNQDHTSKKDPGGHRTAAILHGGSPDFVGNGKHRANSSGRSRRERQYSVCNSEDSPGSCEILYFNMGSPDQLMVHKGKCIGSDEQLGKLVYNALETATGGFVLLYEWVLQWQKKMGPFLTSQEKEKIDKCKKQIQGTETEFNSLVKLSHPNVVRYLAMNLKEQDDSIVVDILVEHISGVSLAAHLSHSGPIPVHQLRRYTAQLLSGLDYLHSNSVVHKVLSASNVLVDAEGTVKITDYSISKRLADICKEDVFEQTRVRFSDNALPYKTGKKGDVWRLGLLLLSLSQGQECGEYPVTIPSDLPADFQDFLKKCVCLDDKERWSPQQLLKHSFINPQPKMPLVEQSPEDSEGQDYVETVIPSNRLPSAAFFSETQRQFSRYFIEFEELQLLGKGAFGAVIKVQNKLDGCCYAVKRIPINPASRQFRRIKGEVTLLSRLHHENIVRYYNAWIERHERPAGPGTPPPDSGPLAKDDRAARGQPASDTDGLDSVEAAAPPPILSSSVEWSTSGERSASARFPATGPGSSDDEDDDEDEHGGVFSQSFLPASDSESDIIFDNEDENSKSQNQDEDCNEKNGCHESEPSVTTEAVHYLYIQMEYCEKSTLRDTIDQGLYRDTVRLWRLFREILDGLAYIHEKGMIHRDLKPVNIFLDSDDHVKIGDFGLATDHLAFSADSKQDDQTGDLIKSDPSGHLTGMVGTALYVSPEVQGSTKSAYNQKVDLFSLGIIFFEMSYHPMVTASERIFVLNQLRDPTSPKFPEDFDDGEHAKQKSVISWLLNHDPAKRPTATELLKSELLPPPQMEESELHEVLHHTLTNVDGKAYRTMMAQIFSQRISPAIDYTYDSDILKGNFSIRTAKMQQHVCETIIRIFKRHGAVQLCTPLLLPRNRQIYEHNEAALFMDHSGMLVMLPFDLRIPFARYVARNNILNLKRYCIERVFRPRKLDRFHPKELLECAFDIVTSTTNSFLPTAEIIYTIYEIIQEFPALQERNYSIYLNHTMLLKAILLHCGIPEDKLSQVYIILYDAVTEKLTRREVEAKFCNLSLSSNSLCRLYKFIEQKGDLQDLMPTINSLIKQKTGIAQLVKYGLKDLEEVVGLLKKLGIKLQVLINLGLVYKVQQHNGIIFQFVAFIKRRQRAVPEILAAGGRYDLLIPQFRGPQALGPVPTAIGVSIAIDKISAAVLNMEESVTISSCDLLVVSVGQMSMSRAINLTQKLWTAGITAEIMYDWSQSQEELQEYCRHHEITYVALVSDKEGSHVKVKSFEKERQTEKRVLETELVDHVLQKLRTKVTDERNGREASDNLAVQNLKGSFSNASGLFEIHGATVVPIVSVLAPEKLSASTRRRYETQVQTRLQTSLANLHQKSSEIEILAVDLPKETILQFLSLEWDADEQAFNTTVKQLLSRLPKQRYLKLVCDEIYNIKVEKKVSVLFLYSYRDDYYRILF
Method: Compounds 1–9 were screened in a radiometric […] kinase assay against human GCN2 and other kinases involved in the UPR and ISR pathways (Table 1). […] The most soluble of the potent tool compounds (1 and 2) were selected for in vitro cell-based assays where the phosphorylation of eIF2α (p-eIF2α) was used as a readout for GCN2 inhibition.
In vitro compound profiling for recombinant GCN2, PERK, HRI, PKR, or IRE1 kinases were performed at Reaction Biology Corporation (Malvern, PA) using the HotSpot kinase assay. Briefly, all compounds provided for testing were dissolved in 10 mM DMSO stock solutions. Serial dilutions were conducted by epMotion 5070 in DMSO. Specific kinase/substrate mixtures and required cofactors were prepared in reaction buffer (20 mM Hepes (pH 7.5), 10 mM MgCl2, 1 mM EGTA, 0.02% Brij35, 0.02 mg/ml BSA, 0.1 mM Na3VO4, 2 mM DTT, 1% DMSO). Compounds were added to the kinase reaction mixture by Acoustic technology (Echo550; nanoliter range) and incubated for 20 min at room temperature. The kinase reaction was initiated by adding ^33P ATP to a final concentration of 10 μM for single point kinase activity reading or to the ATP Km of GCN2 for IC50 readings. The reaction was incubated or 2 h at room temperature and kinase activity was detected by filter-binding method. IC50 values and curves were generated with GraphPad Prism 7 (GraphPad software).

[3] = target: T2, VEGFR2/KDR/FLK1 (Homo sapiens, UniProt P35968); test: Broad kinase panel screen (split-luciferase); type: binding; conditions: VEGFR2/KDR/FLK1, 0.5 uM
T2 construct: purchased Luceome Biotechnologies
Method: (§1) Compound 2 was screened against a standard panel of 50 protein kinases by Luceome Biotechnologies (Tucson, AZ). In brief, Compound 2 was dissolved and diluted in DMSO to a concentration of 12.5 μM from a 10 mM stock solution. As a control, compound 2 was evaluated for false positive against split-luciferase. For kinase assays, each C-terminal half of firefly luciferase linked kinase (Cfluc-Kinase) was translated along with the coiled coil Fos attached to the N-terminal fragment (Nfluc) (Fos-Nfluc) using rabbit reticulocyte lysate at 30 °C for 90 min. 24 µL aliquot of this lysate containing 1 µL of either DMSO or Compound 2 (at a final concentration 0.5 μM) was incubated for 30 minutes at room temperature followed by 1 hour incubation in the presence of a kinase specific probe. Finally, 80 µL of luciferin assay reagent was added and luminescence was immediately measured on a luminometer. Compound 2 was screened in duplicate against each kinase.
(§2) The % Inhibition and % Activity Remaining was calculated using the following equations: […]

[4] = target: T3, KIT (Homo sapiens, UniProt P10721); test: Broad kinase panel screen (split-luciferase); type: binding
T3 construct: purchased Luceome Biotechnologies
T3 sequence (P10721 26-976): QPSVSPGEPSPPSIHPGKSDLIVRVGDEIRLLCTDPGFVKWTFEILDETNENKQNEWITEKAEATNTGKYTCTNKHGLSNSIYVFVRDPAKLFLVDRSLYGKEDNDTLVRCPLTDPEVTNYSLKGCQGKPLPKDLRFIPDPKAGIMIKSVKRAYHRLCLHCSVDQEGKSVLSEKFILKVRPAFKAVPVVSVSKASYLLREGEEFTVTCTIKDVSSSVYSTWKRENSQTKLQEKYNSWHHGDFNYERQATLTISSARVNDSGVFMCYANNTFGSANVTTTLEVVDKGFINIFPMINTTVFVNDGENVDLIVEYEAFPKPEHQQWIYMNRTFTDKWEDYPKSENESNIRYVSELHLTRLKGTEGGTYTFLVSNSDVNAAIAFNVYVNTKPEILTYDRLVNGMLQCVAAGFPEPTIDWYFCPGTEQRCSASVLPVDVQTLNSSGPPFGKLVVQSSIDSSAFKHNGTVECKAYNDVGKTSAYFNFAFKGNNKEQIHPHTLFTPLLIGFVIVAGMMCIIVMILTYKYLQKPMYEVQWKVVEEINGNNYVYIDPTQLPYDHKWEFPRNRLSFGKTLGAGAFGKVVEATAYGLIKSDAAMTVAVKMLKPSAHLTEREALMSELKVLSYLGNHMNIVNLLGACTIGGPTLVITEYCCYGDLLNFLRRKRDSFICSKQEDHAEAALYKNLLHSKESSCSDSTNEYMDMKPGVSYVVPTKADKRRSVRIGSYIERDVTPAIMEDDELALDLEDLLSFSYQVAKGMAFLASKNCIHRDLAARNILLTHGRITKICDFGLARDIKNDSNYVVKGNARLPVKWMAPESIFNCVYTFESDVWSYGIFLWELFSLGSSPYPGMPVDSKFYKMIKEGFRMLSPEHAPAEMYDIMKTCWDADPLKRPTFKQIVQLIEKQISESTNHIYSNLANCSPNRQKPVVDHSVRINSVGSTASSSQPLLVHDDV
Method: as §1, §2

[5] = target: T4, CLK2 (Homo sapiens, UniProt P49760); test: Broad kinase panel screen (split-luciferase); type: binding; conditions: CLK2, 0.5 uM
T4 construct: purchased Luceome Biotechnologies
Method: as §1, §2

[6] = target: T5, DDR1 (Homo sapiens, UniProt Q08345); test: Broad kinase panel screen (split-luciferase); type: binding; conditions: DDR1, 0.5 uM
T5 construct: purchased Luceome Biotechnologies
T5 sequence (Q08345 19-913): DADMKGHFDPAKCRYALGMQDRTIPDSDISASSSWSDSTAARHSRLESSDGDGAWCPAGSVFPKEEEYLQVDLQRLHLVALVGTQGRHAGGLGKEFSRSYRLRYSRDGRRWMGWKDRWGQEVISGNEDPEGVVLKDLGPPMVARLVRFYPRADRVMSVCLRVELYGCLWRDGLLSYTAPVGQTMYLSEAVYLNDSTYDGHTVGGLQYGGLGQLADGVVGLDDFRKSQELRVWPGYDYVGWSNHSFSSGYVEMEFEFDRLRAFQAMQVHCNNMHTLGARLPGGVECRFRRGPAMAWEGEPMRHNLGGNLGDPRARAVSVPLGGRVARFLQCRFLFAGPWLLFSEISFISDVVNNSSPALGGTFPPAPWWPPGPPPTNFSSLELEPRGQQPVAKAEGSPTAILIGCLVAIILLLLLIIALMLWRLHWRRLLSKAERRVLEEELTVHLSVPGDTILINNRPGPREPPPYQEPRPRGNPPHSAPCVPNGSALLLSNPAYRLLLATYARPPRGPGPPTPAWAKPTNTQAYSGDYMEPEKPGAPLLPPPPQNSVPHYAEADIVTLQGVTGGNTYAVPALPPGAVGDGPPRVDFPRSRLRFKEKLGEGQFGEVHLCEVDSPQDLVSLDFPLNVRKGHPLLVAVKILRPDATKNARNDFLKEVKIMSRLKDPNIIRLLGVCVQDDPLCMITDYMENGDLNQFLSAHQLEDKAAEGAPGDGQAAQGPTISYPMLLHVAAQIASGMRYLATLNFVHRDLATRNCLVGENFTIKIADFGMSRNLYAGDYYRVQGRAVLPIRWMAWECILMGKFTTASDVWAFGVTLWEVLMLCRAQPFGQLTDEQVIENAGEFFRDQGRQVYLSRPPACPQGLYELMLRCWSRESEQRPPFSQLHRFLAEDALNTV
Method: as §1, §2

[7] = target: T6, DAPK3 (Homo sapiens, UniProt O43293); test: Broad kinase panel screen (split-luciferase); type: binding; conditions: DAPK3, 0.5 uM
T6 construct: purchased Luceome Biotechnologies
Method: as §1, §2

[8] = target: T7, PKA/PRKACA (Homo sapiens, UniProt P17612); test: Broad kinase panel screen (split-luciferase); type: binding
T7 construct: purchased Luceome Biotechnologies
Method: as §1, §2

[9] = target: T8, AKT1 (Homo sapiens, UniProt P31749); test: Broad kinase panel screen (split-luciferase); type: binding; conditions: AKT1, 0.5 uM
T8 construct: purchased Luceome Biotechnologies
Method: as §1, §2

[10] = target: T9, ITK (Homo sapiens, UniProt Q08881); test: Broad kinase panel screen (split-luciferase); type: binding
T9 construct: purchased Luceome Biotechnologies
Method: as §1, §2

[11] = target: T10, ABL1 (Homo sapiens, UniProt P00519); test: Broad kinase panel screen (split-luciferase); type: binding; conditions: ABL1, 0.5 uM
T10 construct: purchased Luceome Biotechnologies
Method: as §1, §2

[12] = target: T11, AKT3 (Homo sapiens, UniProt Q9Y243); test: Broad kinase panel screen (split-luciferase); type: binding; conditions: AKT3, 0.5 uM
T11 construct: purchased Luceome Biotechnologies
Method: as §1, §2

[13] = target: T12, MSK2/RPS6KA4 (Homo sapiens, UniProt O75676); test: Broad kinase panel screen (split-luciferase); type: binding; conditions: MSK2/RPS6KA4, 0.5 uM
T12 construct: purchased Luceome Biotechnologies
Method: as §1, §2

[14] = target: T13, PDGFRB (Homo sapiens, UniProt P09619); test: Broad kinase panel screen (split-luciferase); type: binding
T13 construct: purchased Luceome Biotechnologies
Method: as §1, §2

[15] = target: T14, IGF1R (Homo sapiens, UniProt P08069); test: Broad kinase panel screen (split-luciferase); type: binding
T14 construct: purchased Luceome Biotechnologies
Method: as §1, §2

[16] = target: T15, SLK (Homo sapiens, UniProt Q9H2G2); test: Broad kinase panel screen (split-luciferase); type: binding
T15 construct: purchased Luceome Biotechnologies
T15 sequence (Q9H2G2 whole entry): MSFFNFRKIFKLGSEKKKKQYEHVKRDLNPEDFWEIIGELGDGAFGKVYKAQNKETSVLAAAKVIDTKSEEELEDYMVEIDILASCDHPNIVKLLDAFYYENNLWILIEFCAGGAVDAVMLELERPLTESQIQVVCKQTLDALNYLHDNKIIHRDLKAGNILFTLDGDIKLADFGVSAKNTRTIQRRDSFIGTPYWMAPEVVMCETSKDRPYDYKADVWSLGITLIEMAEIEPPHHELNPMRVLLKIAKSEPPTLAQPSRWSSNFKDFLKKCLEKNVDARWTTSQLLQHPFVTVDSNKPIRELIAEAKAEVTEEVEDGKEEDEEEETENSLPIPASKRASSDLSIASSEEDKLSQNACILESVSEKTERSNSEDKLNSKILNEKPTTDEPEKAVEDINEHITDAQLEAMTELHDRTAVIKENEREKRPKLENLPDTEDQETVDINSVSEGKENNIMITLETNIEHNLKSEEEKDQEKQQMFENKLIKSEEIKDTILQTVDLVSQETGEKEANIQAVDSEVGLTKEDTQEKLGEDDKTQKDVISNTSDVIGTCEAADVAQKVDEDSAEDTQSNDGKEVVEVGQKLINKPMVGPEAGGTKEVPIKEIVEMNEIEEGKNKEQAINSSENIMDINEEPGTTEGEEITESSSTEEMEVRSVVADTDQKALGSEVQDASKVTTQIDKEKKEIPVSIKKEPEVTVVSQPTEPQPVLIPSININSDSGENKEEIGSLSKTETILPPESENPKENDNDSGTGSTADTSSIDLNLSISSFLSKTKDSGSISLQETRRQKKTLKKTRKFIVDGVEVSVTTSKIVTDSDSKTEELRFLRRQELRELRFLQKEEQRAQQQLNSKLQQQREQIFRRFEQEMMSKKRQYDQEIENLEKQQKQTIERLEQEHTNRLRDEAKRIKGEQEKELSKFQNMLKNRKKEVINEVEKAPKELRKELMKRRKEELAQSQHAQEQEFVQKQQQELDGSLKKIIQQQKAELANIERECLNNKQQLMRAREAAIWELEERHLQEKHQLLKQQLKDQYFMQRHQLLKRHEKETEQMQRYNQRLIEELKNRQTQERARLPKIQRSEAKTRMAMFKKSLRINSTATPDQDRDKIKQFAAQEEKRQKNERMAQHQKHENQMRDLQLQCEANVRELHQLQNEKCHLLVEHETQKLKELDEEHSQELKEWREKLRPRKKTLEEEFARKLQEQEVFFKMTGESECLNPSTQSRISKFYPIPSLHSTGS
Method: as §1, §2

[17] = target: T16, PKG1/PRKG1 (Homo sapiens, UniProt Q13976); test: Broad kinase panel screen (split-luciferase); type: binding; conditions: PKG1/PRKG1, 0.5 uM
T16 construct: purchased Luceome Biotechnologies
Method: as §1, §2

[18] = target: T17, AAK1 (Homo sapiens, UniProt Q2M2I8); test: Broad kinase panel screen (split-luciferase); type: binding; conditions: AAK1, 0.5 uM
T17 construct: purchased Luceome Biotechnologies
Method: as §1, §2

Structure (SMILES) | relative 4E-BP mRNA levels [1] | IC50 [2] [nM] | remaining activity at 0.5 µM [3] [%] | remaining activity at 0.5 µM [4] [%] | remaining activity at 0.5 µM [5] [%] | remaining activity at 0.5 µM [6] [%] | remaining activity at 0.5 µM [7] [%] | remaining activity at 0.5 µM [8] [%] | remaining activity at 0.5 µM [9] [%] | remaining activity at 0.5 µM [10] [%] | remaining activity at 0.5 µM [11] [%] | remaining activity at 0.5 µM [12] [%] | remaining activity at 0.5 µM [13] [%] | remaining activity at 0.5 µM [14] [%] | remaining activity at 0.5 µM [15] [%] | remaining activity at 0.5 µM [16] [%] | remaining activity at 0.5 µM [17] [%] | remaining activity at 0.5 µM [18] [%]
CCOc1ccc(-n2nnc3cnc(Nc4cnn(CC)c4)nc32)cc1 [Compound 2, 3-(4-Ethoxyphenyl)-N-(1-ethyl-1H-pyrazol-4-yl)-3H-[1,2,3]triazolo[4,5-d]pyrimidin-5-amine] | decreased | 18.6 | 77.1 | 88.8 | 93 | 93.1 | 97.6 | 100 | 98.4 | 89.9 | 88.9 | 100 | 100 | 84.4 | 100 | 98.7 | 96 | 73.5
CCn1cc(Nc2ncc3nnn(-c4ccc(C(=O)OC)cc4)c3n2)cn1 [Compound 1, Methyl 4-(5-((1-ethyl-1H-pyrazol-4-yl)amino)-3H-[1,2,3]triazolo[4,5-d]pyrimidin-3-yl)benzoate] | decreased | – | – | – | – | – | – | – | – | – | – | – | – | – | – | – | – | –

Reference: article PMC6197744, “Triazolo[4,5-d]pyrimidines as Validated General Control Nonderepressible 2 (GCN2) Protein Kinase Inhibitors Reduce Growth of Leukemia Cells” (Computational and Structural Biotechnology Journal, 2018)
